Laboratory results as given in PMC7979765, “trans-Translation inhibitors bind to a novel site on the ribosome and clear Neisseria gonorrhoeae in vivo” (Nature Communications, 2021).
Values after ≈ are worked out from the molar mass of the structure shown. Values joined by “and” are separate entries in the source; they are usually repeats but may differ in a detail not shown here. Identical values can stand only once. “Also recorded” adds a separate entry of the source. Like-named read-outs stand apart in the source and are kept apart here.

How the values were obtained:
[1] = Serum protein binding, rat; assay type: in vitro ADME; conditions: Eurofins; for fraction unbound: rat, serum, read-out: Serum binding (% bound) Rat (converted)
Experimental: Serum protein binding was determined using an equilibrium dialysis method as described. The amount of compound in each chamber (buffer and serum) was measured using methods for reverse-phase liquid chromatography/mass spectroscopy methods that were customized for each compound.

[2] = Murine tolerability studies; assay type: in vivo; conditions: for adverse effects (in words): mice
Experimental: Single dose tolerability studies — Female CD-1 mice were fasted for 2 h prior, and 4 h after dosing. […] 4–6 weeks-old CD-1 female mice were received from Charles River laboratories and acclimated for at least 5 days prior to the start of the study. Apart from specific instances of fasting described in the experimental, the mice had free access to food and water. The animals were housed 3–6 per cage in a temperature and humidity-controlled room with a 12 h light cycle. All procedures described are in compliance with the Animal Welfare Act, the Guide for the Care and Use of Laboratory Animals, and the Office of Laboratory Animal Welfare. These studies conform to the NeoSome IACUC policies and Operational Guidelines as approved by the IACUC membership, NeoSome Safety Officers, or Attending Veterinarian. All testing was performed at Neosome LLC.
Multidose tolerability studies — In preparation for this study, an abbreviated version of the above murine PK study using the same formulation (A) examined fasted mice vs. fed mice was performed, with plasma samples taken at 1 and 4 h post dosing and analyses as described in the PK section.
Female CD-1 mice were given free access to food and water. […] Any abnormal observations (behavior, agility, weight, coat condition and appearance, color of urine, quality of feces, etc.) were noted.

[3] = Liver microsome stability, rat; assay type: in vitro ADME
Experimental: To examine potential for first-pass metabolism of analogs in the liver, the stability of analogs in the presence of liver microsome preparations (Eurofins Discovery for human, dog and rat; Xenotech for mouse) was measured using the method of Kuhnz, et al.[50]. for murine studies and Oback for the dog, human and rat studies. The amount of parent compound remaining after incubation with microsomes in the presence of NADPH over a 30 min time range was measured using a reverse-phase liquid chromatography/mass spectroscopy method that was customized for each compound. Half-lives were calculated using linear regression analysis of several time points.

[4] = target: T1, CYP2B6 (Homo sapiens, UniProt P20813); experiment: Cyp inhibition assay 4877; assay type: in vitro ADME; conditions: catalog reference 4877, read-out: pIC50 (µM) reported (converted)
T1 construct: Eurofins Discovery Services (contract assay) 4877
Experimental: (§1) Several in vitro selectivity assays were performed at Eurofins Discovery Services using established methods and controls that behaved as expected (Supplementary Tables 5 and 6). […] For receptor panel profiling, MBX-4132 was evaluated at 10 μM and activity of >50% (agonist or antagonist; note that negative % inhibition indicates agonism) was scored as active.

[5] = target: T2, Adrenergic α1A (Homo sapiens, UniProt P35348); experiment: Receptor Profiling 203110; assay type: binding
T2 construct: purchased Eurofins Discovery Services (Panlabs safety panel)
Experimental: as §1

[6] = target: T3, CYP2C9 (Homo sapiens, UniProt P11712); experiment: Cyp inhibition assay 4878; assay type: in vitro ADME; conditions: catalog reference 4878
T3 construct: Eurofins Discovery Services (contract assay) 4878
Experimental: as §1

[7] = tested on: translation; experiment: In vitro translation assay (full-length nano-luciferase gene); assay type: biochemical, Escherichia coli; conditions: for % of translation activity: 0 uM = 100
[8] = tested on: Moraxella catarrhalis; experiment: MIC, microbroth dilution; assay type: cell-based
[9] = target: T4, Cav1.2 (Homo sapiens, UniProt Q13936); experiment: cell-based
T4 construct: Eurofins Discovery Services (contract assay) CYL8051QP2DR
Experimental: as §1

[10] = target: T5, KCNQ1/mink (Homo sapiens, UniProt P51787); experiment: cell-based
T5 construct: Eurofins Discovery Services (contract assay) CYL8007QP2DR
Experimental: as §1

[11] = target: T6, Cannabinoid CB1 (Homo sapiens, UniProt P21554); experiment: Receptor Profiling 217050; assay type: binding
T6 construct: purchased Eurofins Discovery Services (Panlabs safety panel)
Experimental: as §1

[12] = target: T7, Muscarinic M3 (Homo sapiens, UniProt P20309); experiment: Receptor Profiling 252810; assay type: binding
T7 construct: purchased Eurofins Discovery Services (Panlabs safety panel)
Experimental: as §1

[13] = target: T8, CYP2C19 (Homo sapiens, UniProt P33261); experiment: Cyp inhibition assay 4874; assay type: in vitro ADME; conditions: catalog reference 4874, read-out: pIC50 (µM) reported (converted)
T8 construct: Eurofins Discovery Services (contract assay) 4874
Experimental: as §1

[14] = tested on: Haemophilus influenzae; experiment: MIC, microbroth dilution; assay type: cell-based

T7 sequence (P20309 whole entry): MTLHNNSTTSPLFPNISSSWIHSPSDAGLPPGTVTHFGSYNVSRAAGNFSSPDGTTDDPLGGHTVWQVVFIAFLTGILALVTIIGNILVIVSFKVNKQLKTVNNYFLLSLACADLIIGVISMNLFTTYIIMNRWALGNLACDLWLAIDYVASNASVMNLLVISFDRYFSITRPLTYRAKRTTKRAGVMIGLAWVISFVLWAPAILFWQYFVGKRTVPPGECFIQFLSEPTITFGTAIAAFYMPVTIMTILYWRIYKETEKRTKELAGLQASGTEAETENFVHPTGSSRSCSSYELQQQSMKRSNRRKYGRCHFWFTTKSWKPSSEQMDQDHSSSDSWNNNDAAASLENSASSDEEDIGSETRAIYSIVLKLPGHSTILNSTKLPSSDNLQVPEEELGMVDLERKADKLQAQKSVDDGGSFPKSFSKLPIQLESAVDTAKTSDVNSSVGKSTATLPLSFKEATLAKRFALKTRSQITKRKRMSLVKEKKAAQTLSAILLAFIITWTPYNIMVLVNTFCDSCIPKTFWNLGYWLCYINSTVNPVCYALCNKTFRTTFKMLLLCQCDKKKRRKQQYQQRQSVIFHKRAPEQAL
T6 sequence (P21554 whole entry): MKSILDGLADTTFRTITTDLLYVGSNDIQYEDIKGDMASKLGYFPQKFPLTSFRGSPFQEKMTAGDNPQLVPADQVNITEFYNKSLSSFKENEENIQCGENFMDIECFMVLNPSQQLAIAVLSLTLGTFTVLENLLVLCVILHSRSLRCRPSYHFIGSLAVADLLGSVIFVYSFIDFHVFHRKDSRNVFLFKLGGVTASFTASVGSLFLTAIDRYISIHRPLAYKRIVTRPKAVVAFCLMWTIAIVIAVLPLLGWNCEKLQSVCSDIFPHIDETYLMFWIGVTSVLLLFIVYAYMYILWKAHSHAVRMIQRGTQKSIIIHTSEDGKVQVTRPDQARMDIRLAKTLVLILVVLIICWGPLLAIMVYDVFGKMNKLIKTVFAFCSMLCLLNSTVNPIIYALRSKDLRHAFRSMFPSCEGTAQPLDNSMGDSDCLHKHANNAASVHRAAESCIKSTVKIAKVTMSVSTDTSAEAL
T2 sequence (P35348 whole entry): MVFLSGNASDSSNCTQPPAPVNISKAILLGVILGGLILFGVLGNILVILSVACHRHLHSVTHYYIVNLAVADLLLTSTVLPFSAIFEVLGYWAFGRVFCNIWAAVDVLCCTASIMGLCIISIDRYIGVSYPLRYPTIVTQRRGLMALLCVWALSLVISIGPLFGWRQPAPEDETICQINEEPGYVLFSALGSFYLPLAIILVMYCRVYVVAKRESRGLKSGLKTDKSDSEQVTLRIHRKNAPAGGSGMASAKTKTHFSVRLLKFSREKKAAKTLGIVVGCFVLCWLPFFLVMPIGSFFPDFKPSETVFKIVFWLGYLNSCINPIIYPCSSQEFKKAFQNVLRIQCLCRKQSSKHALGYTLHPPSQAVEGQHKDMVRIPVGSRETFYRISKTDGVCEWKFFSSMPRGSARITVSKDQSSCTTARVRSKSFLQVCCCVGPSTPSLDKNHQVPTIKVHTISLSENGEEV
T1 sequence (P20813 whole entry): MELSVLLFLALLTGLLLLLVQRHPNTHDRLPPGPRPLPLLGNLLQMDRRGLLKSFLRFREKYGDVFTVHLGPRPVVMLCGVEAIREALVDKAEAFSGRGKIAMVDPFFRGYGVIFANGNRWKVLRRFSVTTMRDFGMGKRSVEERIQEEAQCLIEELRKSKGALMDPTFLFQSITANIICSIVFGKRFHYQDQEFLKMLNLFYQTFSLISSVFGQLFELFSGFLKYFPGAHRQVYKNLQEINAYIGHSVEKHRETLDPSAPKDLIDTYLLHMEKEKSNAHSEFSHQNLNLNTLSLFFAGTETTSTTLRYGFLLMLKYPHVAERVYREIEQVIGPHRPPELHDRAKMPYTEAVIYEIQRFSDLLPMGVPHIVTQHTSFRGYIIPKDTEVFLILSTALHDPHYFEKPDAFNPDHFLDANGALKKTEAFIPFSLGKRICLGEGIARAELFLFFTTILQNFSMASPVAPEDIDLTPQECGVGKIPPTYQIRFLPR
T8 sequence (P33261 whole entry): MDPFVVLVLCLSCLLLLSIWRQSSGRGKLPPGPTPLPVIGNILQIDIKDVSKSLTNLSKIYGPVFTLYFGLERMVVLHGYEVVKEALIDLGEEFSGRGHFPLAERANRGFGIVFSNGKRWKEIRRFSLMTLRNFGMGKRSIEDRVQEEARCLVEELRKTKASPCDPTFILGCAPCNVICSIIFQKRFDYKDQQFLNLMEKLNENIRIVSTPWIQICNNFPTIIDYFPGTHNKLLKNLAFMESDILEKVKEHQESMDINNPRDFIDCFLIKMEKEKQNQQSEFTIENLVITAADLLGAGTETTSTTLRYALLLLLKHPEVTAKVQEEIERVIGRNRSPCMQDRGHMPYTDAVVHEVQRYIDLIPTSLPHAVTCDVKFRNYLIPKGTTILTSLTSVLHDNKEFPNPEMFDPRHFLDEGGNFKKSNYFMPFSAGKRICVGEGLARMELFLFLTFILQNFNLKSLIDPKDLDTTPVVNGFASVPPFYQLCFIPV
T3 sequence (P11712 whole entry): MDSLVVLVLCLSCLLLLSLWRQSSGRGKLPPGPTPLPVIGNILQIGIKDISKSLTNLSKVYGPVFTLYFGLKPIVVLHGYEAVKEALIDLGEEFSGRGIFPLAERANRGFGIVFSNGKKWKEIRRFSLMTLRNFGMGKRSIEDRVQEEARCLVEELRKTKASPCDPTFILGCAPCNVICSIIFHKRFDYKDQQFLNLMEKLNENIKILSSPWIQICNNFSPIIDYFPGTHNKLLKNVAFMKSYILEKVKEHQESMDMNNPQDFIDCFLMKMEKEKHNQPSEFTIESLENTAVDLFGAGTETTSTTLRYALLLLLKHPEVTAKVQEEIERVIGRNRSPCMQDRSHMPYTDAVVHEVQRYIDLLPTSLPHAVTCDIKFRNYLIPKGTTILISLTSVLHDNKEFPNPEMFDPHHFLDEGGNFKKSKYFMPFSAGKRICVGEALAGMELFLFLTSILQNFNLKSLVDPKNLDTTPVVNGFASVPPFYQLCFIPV

SMILES: O=C(Nc1nnc(-c2ccc(F)cc2)o1)N1CCc2ccccc2C1 [MBX-4132]
- Serum binding (% bound) Rat ([1]; Replicate 1/2): 99.9% and 85.2%
- fraction unbound ([1]; Reported value): 0.07
- fraction unbound ([1]; Average Value): 0.074
- abnormal observations, multidose tolerability ([2]; female CD-1 mice, 10 ml/kg of 1.0 mg/ml suspension QD or BID for 7 d, observed 10 d): No abnormal observations
- abnormal observations, single dose tolerability ([2]; female CD-1 mice, oral gavage 10 ml/kg of 1.0, 2.5 or 10.0 mg/ml suspension, 24 h): No abnormal observations
- adverse effects (in words) ([2]; repeat dosing 10 mg/kg BID, 7 d): no obvious adverse effects
- adverse effects (in words) ([2]; single dose of 100 mg/kg): no obvious adverse effects
- Microsomal stability (t½, min) Rat ([3]; Reported value, Eurofins): >120 min
- half-life ([3]; rat, liver microsomes, read-out: Microsomal Stability (t1/2; min) Rat): > 2 h
- IC50 [4]: > 100 µM
- inhibition at 10 µM [5]: 6%
- pIC50 (µM) reported [6]: No activity
- % of translation activity ([7]; [MBX-4132] 0.01 uM): 94% and 99%
- % of translation activity ([7]; [MBX-4132] 0.1 uM): 98% and 102%
- % of translation activity ([7]; [MBX-4132] 1 uM): 92% and 103%
- % of translation activity ([7]; [MBX-4132] 2 uM): 86% and 97%
- % of translation activity ([7]; [MBX-4132] 10 uM): 106% and 98%
- % of translation activity ([7]; [MBX-4132] 20 uM): 97% and 96%
- % of translation activity ([7]; [MBX-4132] 50 uM): 93% and 99%
- inhibition of translation in vitro (in words) ([7]; full-length nano-luciferase gene control): did not inhibit translation; also recorded: does not inhibit translation
- MIC ([8]; Moraxella catarrhalis 8716, replicates): 0.0332 µg/mL (≈ 0.0981 µM)
- MIC ([8]; Moraxella catarrhalis, Moraxella catarrhalis 8716, replicates, read-out: MIC): 0.0332 µg/mL (≈ 0.0981 µM)
- MIC ([8]; Moraxella catarrhalis, strain 8716, read-out: MIC): 0.04 µg/mL (≈ 0.118 µM)
- IC50 [9]: > 30 µM
- IC50 [10]: > 30 µM
- inhibition at 10 µM [11]: -4%
- inhibition at 10 µM [12]: 5%
- IC50 [13]: > 100 µM
- MIC ([14]; Haemophilus influenzae ATCC 35056, replicates): 17 µg/mL (≈ 50.2 µM)
- MIC ([14]; Haemophilus influenzae, ATCC35056, Haemophilus influenzae ATCC 35056, replicates, read-out: MIC): 17 µg/mL (≈ 50.2 µM)
- MIC ([14]; Haemophilus influenzae, ATCC35056, strain ATCC 35056, read-out: MIC): 17.5 µg/mL (≈ 51.7 µM)
